Columns and labels:
CaMKK2 = CaMKK2 (Homo sapiens, UniProt Q96RR4); experiment: CaMKK2 binding assay (LanthaScreen TR-FRET)
Protocol: The ability of test compounds to bind and inhibit the activity of CaMKK2 were determined using a binding assay using LanthaScreent (Thermofisher) detection reagents in a 384-well plate format using the following assay buffer: 50 mM HEPES (pH7.5), 10 mM MgCl2, 1 mM EGTA, and 0.01% Brij-35.
A 10-point serial dilution of inhibitor compound in 0.5% DMSO was added to each well of the plate. The final assay volume in well was 15 uL. […] A ratio was calculated from the 2 readouts and fitted to a 4-parameter fit to determine the binding IC50.

[1] = system: phosphorylation of CaMKK2 substrate AMPK at Thr172 in A549 lung carcinoma cells; experiment: Cell-based phosphorylation assay (Phospho-AMPK Thr172 HTRF); conditions: Homo sapiens; A549 cells, compounds 4 hours, 3 uM Calcium Ionophore 30 minutes; read-out: Cellular IC50 Phosphorylation
Protocol: Cellular CaMKK2 inhibition by compounds was measured by monitoring the phosphorylation of CaMKK2 substrate AMPK at Thr172 in A549 lung carcinoma cells (ATCC) using CISBIO Phospho-AMPK (Thr172) HTRF kit. A549 cells were plated in 96 well plates at 8000 cells/well in DMEM+10% FBS+1× pen/step+1×NEAA and incubated at 37° C. overnight in a CO2 incubator. Cells were then treated with compounds for 4 hours. After cells were stimulated by 3 uM Calcium Ionophore (Sigma) at 37° C. for 30 minutes, cells were washed and then lysed with cell lysis buffer (CisBio) for 30 minutes. […] Plates were incubated overnight and then read using HTRF mode by BMG PHERAstarFS.

[2] = system: A549 lung carcinoma cells; experiment: Cell proliferation assay (CellTiter 96 Aqueous); format: cell-based; conditions: Homo sapiens, compounds 48 hours, read-out: Cellular IC50 Proliferation
Protocol: Proliferation was measured using CellTiter 96 Aqueous Non-Radioactive Cell Proliferation Assay Kit (Promega), which determines the number of viable cells in culture based on quantitation of dehydrogenase enzymes, as an indicator of metabolically active cells. A549 lung carcinoma cells were seeded at 2,000 cells/well in a 96-well tissue culture treated plate in DMEM+10% FBS+1× pen/step+1×NEAA and incubated at 37° C. overnight in a CO2 incubator. Cells were treated with compounds for 48 hours. Then viability was measured using CellTiter 96 Aqueous Non-Radioactive Cell Proliferation Assay Kit (Promega). Detection was performed using Biotek Cytation 5 Cell Imaging Multi Mode plate reader.

Sequence of CaMKK2 (Q96RR4 whole entry): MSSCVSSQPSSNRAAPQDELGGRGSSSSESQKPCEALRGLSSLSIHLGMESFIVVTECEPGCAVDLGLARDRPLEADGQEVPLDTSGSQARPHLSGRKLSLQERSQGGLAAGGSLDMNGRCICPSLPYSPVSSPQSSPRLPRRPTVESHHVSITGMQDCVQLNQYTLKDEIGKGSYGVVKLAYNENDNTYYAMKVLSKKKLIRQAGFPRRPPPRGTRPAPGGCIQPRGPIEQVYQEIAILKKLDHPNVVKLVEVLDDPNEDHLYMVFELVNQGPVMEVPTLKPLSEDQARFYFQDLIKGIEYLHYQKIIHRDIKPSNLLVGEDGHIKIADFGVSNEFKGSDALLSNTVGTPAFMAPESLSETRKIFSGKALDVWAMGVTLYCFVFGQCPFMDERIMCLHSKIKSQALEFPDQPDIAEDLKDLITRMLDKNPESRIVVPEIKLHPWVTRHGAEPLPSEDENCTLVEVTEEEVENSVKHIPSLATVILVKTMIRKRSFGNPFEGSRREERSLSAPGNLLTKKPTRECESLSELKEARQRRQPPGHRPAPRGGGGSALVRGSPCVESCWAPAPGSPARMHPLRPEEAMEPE

| SMILES | IC50 (CaMKK2) [nM] | IC50 [1] [nM] | IC50 [2] [nM] |
| --- | --- | --- | --- |
| Cn1cc2cc(-c3cnc4ccn(-c5ccc(C(=O)O)c(NCC6CC6)c5)c4n3)ccc2n1 [Example 12, 2-(Cyclopropylmethylamino)-4-(3-(2-methyl-2H-indazol-5-yl)-5H-pyrrolo[2,3-b]pyrazin-5-yl)benzoic Acid] | < 100 | 100 to 1000 | > 10000 |
| O=C(O)c1ccc(-n2ccc3ncc(-c4cccc(Cl)c4)nc32)cc1C1CCCC1 [Example 3, 4-[3-(3-Chlorophenyl)pyrrolo[2,3-b]pyrazin-5-yl]-2-cyclopentyl-benzoic Acid] | < 100 | 100 to 1000 | > 10000 |
| O=C(O)c1ccc(-n2ccc3ncc(-c4cccc(C5CC5)c4)nc32)cc1C1CCCC1 [Example 2, 2-Cyclopentyl-4-[3-(3-cyclopropylphenyl)pyrrolo[2,3-b]pyrazin-5-yl]benzoic Acid] | < 100 | < 100 | > 10000 |
| CCNc1cc(-n2ccc3ncc(-c4ccc5nn(C)cc5c4)nc32)ccc1C(=O)O [Example 13, 2-(Ethylamino)-4-(3-(2-methyl-2H-indazol-5-yl)-5H-pyrrolo[2,3-b]pyrazin-5-yl)benzoic Acid] | < 100 | 100 to 1000 | > 10000 |
| c1cc(-c2nn[nH]n2)c(C2CCCC2)cc1-n1ccc2ncc(C3CC3)nc21 [Example 20, 5-(3-cyclopentyl-4-(2H-tetrazol-5-yl)phenyl)-3-cyclopropyl-5H-pyrrolo[2,3-b]pyrazine] | < 100 | > 10000 | > 10000 |
| O=C(O)c1ccc(-n2ccc3ncc(-c4ccccc4)nc32)cc1NC1CCCC1 [Example 7, 2-(Cyclopentylamino)-4-(3-phenyl-5H-pyrrolo[2,3-b]pyrazin-5-yl)benzoic Acid] | < 100 | 1000 to 10000 | > 10000 |
| CCNc1cc(-n2ccc3ncc(-c4ccc(F)cc4F)nc32)ccc1C(=O)O [Example 9, 4-(3-(2,4-Difluorophenyl)-5H-pyrrolo[2,3-b]pyrazin-5-yl)-2-(ethylamino)benzoic Acid] | < 100 | 100 to 1000 | > 10000 |
| N#CNC(=O)c1ccc(-n2ccc3ncc(C4CC4)nc32)cc1C1CCCC1 [Example 19, N-Cyano-2-cyclopentyl-4-(3-cyclopropyl-5H-pyrrolo[2,3-b]pyrazin-5-yl)benzamide] | < 100 | 1000 to 10000 | > 10000 |
| O=C(O)c1ccc(-n2ccc3ncc(C4CC4)nc32)cc1C1CCCC1 [Example 18, 2-Cyclopentyl-4-(3-cyclopropyl-5H-pyrrolo[2,3-b]pyrazin-5-yl)benzoic Acid] | < 100 | 100 to 1000 | > 10000 |
| O=C(O)c1ccc(-n2ccc3ncc(-c4ccc(F)cc4)nc32)cc1NC1CC1 [Example 15, 2-(Cyclopropylamino)-4-(3-(4-fluorophenyl)-5H-pyrrolo[2,3-b]pyrazin-5-yl)benzoic Acid] | < 100 |  |  |

Further lines, results first:

| IC50 (CaMKK2) [nM] | IC50 [1] [nM] | IC50 [2] [nM] | SMILES |
| --- | --- | --- | --- |
| < 100 | 100 to 1000 | > 10000 | O=C(O)c1ccc(-c2c(F)cnc3cn(-c4ccc(F)cc4)nc23)cc1C1CCCC1 [Example 3.5, 2-Cyclopentyl-4-(6-fluoro-2-(4-fluorophenyl)-2H-pyrazolo[4,3-b]pyridin-7-yl)benzoic Acid] |
| < 100 | 100 to 1000 | > 10000 | CCOc1cccc(-c2cc3nccc(-c4ccc(C(=O)O)c(C5CCCC5)c4)n3n2)c1 [Example 2.10, 2-Cyclopentyl-4-(2-(3-ethoxyphenyl)pyrazolo[1,5-a]pyrimidin-7-yl)benzoic Acid] |
| < 100 | 100 to 1000 | > 10000 | O=C(O)c1ccc(-c2c(F)cnc3cn(-c4cccc(C(F)(F)F)c4)nc23)cc1C1CCCC1 [Example 3.9, 2-Cyclopentyl-4-(6-fluoro-2-(3-(trifluoromethyl)phenyl)-2H-pyrazolo[4,3-b]pyridin-7-yl)benzoic Acid] |
| < 100 | 100 to 1000 | > 10000 | O=C(O)c1ccc(-c2ccnc3cn(-c4cccc(Cl)c4)nc23)cc1C1CCCC1 [Example 3.6, 4-(2-(3-Chlorophenyl)-2H-pyrazolo[4,3-b]pyridin-7-yl)-2-cyclopentylbenzoic Acid] |
| < 100 | 100 to 1000 | > 10000 | O=C(O)c1ccc(-c2c(F)cnc3cn(-c4cc(F)cc(F)c4)nc23)cc1C1CCCC1 [Example 3.12, 2-Cyclopentyl-4-(2-(3,5-difluorophenyl)-6-fluoro-2H-pyrazolo[4,3-b]pyridin-7-yl)benzoic Acid] |
| < 100 | 100 to 1000 | > 10000 | Cc1cccc(-n2cc3nccc(-c4ccc(C(=O)O)c(C5CCCC5)c4)c3n2)c1 [Example 3.3, 2-Cyclopentyl-4-(2-(m-tolyl)-2H-pyrazolo[4,3-b]pyridin-7-yl)benzoic Acid] |
| < 100 | 100 to 1000 | > 10000 | O=C(O)c1ccc(-c2ccnn3cc(-c4ccccc4)cc23)cc1C1CCCC1 [Example 4.1, 2-Cyclopentyl-4-(6-phenylpyrrolo[1,2-b]pyridazin-4-yl)benzoic Acid] |
| < 100 | < 100 | > 10000 | O=C(O)c1ccc(-c2ccnc3cn(-c4ccccc4)nc23)cc1C1CCCC1 [Example 3.2, 2-Cyclopentyl-4-(2-phenyl-2H-pyrazolo[4,3-b]pyridin-7-yl)benzoic Acid] |
| < 100 | 100 to 1000 | > 10000 | O=C(O)c1ccc(-c2ccnc3cn(-c4ccc(F)cc4)nc23)cc1C1CCCC1 [Example 3.1, 2-Cyclopentyl-4-[2-(4-fluorophenyl)pyrazolo[4,3-b]pyridin-7-yl]benzoic Acid] |
| < 100 | 100 to 1000 | > 10000 | O=C(O)c1ccc(-c2ccnc3cc(-c4ccccc4F)nn23)cc1C1CCCC1 [Example 2.6, 2-Cyclopentyl-4-(2-(2-fluorophenyl)pyrazolo[1,5-a]pyrimidin-7-yl)benzoic Acid] |
| < 100 | < 100 | > 10000 | Cc1cc(Cl)cc(-n2cc3ncc(F)c(-c4ccc(C(=O)O)c(C5CCCC5)c4)c3n2)c1 [Example 3.7, 4-(2-(3-Chloro-5-methylphenyl)-6-fluoro-2H-pyrazolo[4,3-b]pyridin-7-yl)-2-cyclopentylbenzoic Acid] |
| < 100 | < 100 | > 10000 | O=C(O)c1ccc(-c2c(F)cnc3cn(-c4cc(Cl)cc(Cl)c4)nc23)cc1C1CCCC1 [Example 3.16, 2-Cyclopentyl-4-(2-(3,5-dichlorophenyl)-6-fluoro-2H-pyrazolo[4,3-b]pyridin-7-yl)benzoic Acid] |
| < 100 | 100 to 1000 | > 10000 | Cc1cc(OC(F)(F)F)cc(-n2cc3ncc(F)c(-c4ccc(C(=O)O)c(C5CCCC5)c4)c3n2)c1 [Example 3.18, 2-Cyclopentyl-4-(6-fluoro-2-(3-methyl-5-(trifluoromethoxy)phenyl)-2H-pyrazolo[4,3-b]pyridin-7-yl)benzoic Acid] |
| < 100 | < 100 | > 10000 | O=C(O)c1ccc(-c2ccnc3cn(-c4cccc(C5CC5)c4)nc23)cc1C1CCCC1 [Example 3.4, 2-Cyclopentyl-4-(2-(3-cyclopropylphenyl)-2H-pyrazolo[4,3-b]pyridin-7-yl)benzoic Acid] |
| < 100 | 100 to 1000 | > 10000 | COc1cc(F)cc(-n2cc3ncc(F)c(-c4ccc(C(=O)O)c(C5CCCC5)c4)c3n2)c1 [Example 3.17, 2-Cyclopentyl-4-(6-fluoro-2-(3-fluoro-5-methoxyphenyl)-2H-pyrazolo[4,3-b]pyridin-7-yl)benzoic Acid] |
| < 100 |  |  | CCOc1cc2nccc(-c3ccc(C(=O)O)c(C4CCCC4)c3)n2n1 [Example 2.4, 2-Cyclopentyl-4-(2-ethoxypyrazolo[1,5-a]pyrimidin-7-yl)benzoic Acid] |
| < 100 |  |  | O=C(O)c1ccc(-c2ccnc3cc(-c4ccc(F)cc4)nn23)cc1C1CCCC1 [Example 2.5, 2-Cyclopentyl-4-(2-(4-fluorophenyl)pyrazolo[1,5-a]pyrimidin-7-yl)benzoic Acid] |
| < 100 |  |  | COc1ccc(-c2cc3nccc(-c4ccc(C(=O)O)c(C5CCCC5)c4)n3n2)cc1 [Example 2.8, 2-Cyclopentyl-4-(2-(4-methoxyphenyl)pyrazolo[1,5-a]pyrimidin-7-yl)benzoic Acid] |
| < 100 |  |  | O=C(O)c1ccc(-c2c(F)cnc3cn(-c4cc(F)cc(Cl)c4)nc23)cc1C1CCCC1 [Example 3.10, 4-(2-(3-Chloro-5-fluorophenyl)-6-fluoro-2H-pyrazolo[4,3-b]pyridin-7-yl)-2-cyclopentylbenzoic Acid] |

Source: patent publication US20240246969A1, “HETEROCYCLIC DERIVATIVES AS CAMKK2 INHIBITORS” (Bristol-Myers Squibb Company, priority 2021, published 2024)
